Measurements taken from paper PMC6994260 (Nature chemistry, 2019).

Experiments:
[1] = target: T1, signal peptidase IB (SpsB) (Staphylococcus aureus, UniProt Q5HHB9); experiment: FRET-peptide cleavage by endogenous SpsB in S. aureus membranes; type: biochemical; conditions: activator; 50 uM compound, 0.2 mg/mL total membrane protein
T1 sequence (Q5HHB9 1-191): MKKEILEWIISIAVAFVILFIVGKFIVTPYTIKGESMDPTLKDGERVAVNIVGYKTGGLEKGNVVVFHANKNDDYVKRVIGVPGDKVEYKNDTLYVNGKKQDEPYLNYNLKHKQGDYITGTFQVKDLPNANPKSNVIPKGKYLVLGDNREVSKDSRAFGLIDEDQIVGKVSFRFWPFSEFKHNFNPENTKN

[2] = target: T2, demethylmenaquinone methyltransferase (MenG) (Staphylococcus aureus, UniProt P67062); experiment: MenG methylation assay in lysate; type: biochemical; conditions: inhibitor; SAM and DMK-2 as substrates, 80 min
T2 sequence (P67062 1-241): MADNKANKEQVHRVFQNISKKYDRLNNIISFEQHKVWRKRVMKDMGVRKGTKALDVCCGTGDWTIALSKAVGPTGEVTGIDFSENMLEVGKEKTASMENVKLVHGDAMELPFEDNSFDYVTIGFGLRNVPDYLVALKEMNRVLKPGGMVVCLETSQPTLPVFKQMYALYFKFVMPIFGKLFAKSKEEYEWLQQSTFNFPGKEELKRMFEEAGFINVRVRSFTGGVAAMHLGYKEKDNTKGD

[3] = target: T2, demethylmenaquinone methyltransferase (MenG); conditions: labelled compound; DMK-2 as acceptor, 80 min
[4] = target: T2, demethylmenaquinone methyltransferase (MenG); experiment: LC-MS of menaquinone-2 formed in lysate; type: biochemical; conditions: S-adenosyl-L-methionine as methyl donor, 80 min

Compound | SpsB activity (normalized) at 50 μM [1] | % MenG activity of DMSO control [2] | further results
O=C(Nc1ccc(Cl)c(C(F)(F)F)c1)Nc1cccc2c1OC(F)(F)O2 [1-164] | 1.42 ± 0.08 fold of DMSO control |  | 
O=C(Nc1ccc2c(c1)OC(F)(F)O2)Nc1ccc(Cl)c(C(F)(F)F)c1 [PK150] | 2.54 ± 0.39 fold of DMSO control | Menaquinone-2 synthesis was enhanced in MenG-overexpressing cells and again significantly inhibited by PK150 | 
O=C(Nc1ccc2c(c1)OCO2)Nc1ccc(Cl)c(C(F)(F)F)c1 [1-159] | 1.40 ± 0.01 fold of DMSO control |  | 
C[S+](CC[C@H](N)C(=O)O)C[C@H]1O[C@@H](n2cnc3c(N)ncnc32)[C@H](O)[C@@H]1O (stereo partly drawn) [SAM, S-adenosyl-L-methionine] |  |  | [3H]methyl transfer to DMK-2, liquid scintillation counting [3]: radiolabelled methyl group of cofactor S-adenosyl-L-methionine
CC(C)=CCC/C(C)=C/CC1=CC(=O)c2ccccc2C1=O [DMK-2, demethylmenaquinone-2] |  |  | LC-MS of menaquinone-2 formed in lysate [4]: methylation of non-naturally occurring demethylmenaquinone-2 by lysates of MenG-overexpressing and wild type S. aureus
CNC(=O)c1cc(Oc2ccc(NC(=O)Nc3ccc(Cl)c(C(F)(F)F)c3)cc2)ccn1 [SFN, sorafenib] | 1.64 ± 0.12 fold of DMSO control | SFN caused a weaker inhibition in these assays | 
